Assay results from ChEMBL document CHEMBL3124804, “Discovery of a cyclopentylamine as an orally active dual NK1 receptor antagonist-serotonin reuptake transporter inhibitor” (Bioorg Med Chem Lett, 2014).
The source made the active and inactive calls. No cut-off for these calls is given here.

Columns and labels:
Substance-P receptor = Substance-P receptor (Homo sapiens, UniProt P25103); test: Antagonist activity at human NK1 receptor
[1] = target: Sodium-dependent serotonin transporter (Homo sapiens, UniProt P31645); test: Inhibition of human SERT
Sequence of Sodium-dependent serotonin transporter (P31645 whole entry): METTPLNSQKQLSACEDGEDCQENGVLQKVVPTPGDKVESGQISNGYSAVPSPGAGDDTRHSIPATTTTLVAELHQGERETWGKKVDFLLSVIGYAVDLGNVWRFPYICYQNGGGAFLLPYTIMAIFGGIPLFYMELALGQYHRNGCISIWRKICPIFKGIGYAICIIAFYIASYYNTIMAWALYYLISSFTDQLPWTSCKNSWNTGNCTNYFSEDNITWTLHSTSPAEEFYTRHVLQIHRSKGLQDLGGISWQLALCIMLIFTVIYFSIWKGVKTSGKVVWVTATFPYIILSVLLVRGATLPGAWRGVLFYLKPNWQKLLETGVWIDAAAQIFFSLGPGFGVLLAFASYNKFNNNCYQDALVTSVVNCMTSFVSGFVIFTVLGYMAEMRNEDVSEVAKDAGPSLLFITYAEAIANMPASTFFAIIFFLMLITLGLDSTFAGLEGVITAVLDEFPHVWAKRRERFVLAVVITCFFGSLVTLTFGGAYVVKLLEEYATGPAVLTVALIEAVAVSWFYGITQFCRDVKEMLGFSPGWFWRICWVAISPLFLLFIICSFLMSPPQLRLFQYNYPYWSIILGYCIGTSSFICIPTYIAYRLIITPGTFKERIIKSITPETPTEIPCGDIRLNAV

Gerbillinae [2] = test: Neurotoxicity in gerbil assessed as increase in spontaneous locomotor activity at 30 mg/kg, po relative to vehicle-treated control; type: toxicity, organism-based; set-up: dose 30 mg/kg, route oral; conditions: in vivo
[3] = Plasma concentration in gerbil at 30 mg/kg, po; type: ADME, organism-based; set-up: dose 30 mg/kg, route oral; conditions: gerbillinae, in vivo
[4] = Drug uptake in gerbil brain at 30 mg/kg, po; type: ADME, organism-based; set-up: dose 30 mg/kg, route oral; conditions: gerbillinae, in vivo, read-out: Drug uptake
Gerbillinae [5] = test: Antidepressant activity in gerbil assessed as reduction of immobility time at 30 mg/kg, po administered 30 mins prior to testing measured over 6 mins by forced swimming test relative to vehicle-treated control; type: functional, organism-based; set-up: dose 30 mg/kg
Gerbillinae [6] = test: Antidepressant activity in gerbil assessed as reduction of immobility time at 3 to 10 mg/kg, po administered 30 mins prior to testing measured over 6 mins by forced swimming test relative to vehicle-treated control; type: functional, organism-based

Sequence of Substance-P receptor (P25103 whole entry): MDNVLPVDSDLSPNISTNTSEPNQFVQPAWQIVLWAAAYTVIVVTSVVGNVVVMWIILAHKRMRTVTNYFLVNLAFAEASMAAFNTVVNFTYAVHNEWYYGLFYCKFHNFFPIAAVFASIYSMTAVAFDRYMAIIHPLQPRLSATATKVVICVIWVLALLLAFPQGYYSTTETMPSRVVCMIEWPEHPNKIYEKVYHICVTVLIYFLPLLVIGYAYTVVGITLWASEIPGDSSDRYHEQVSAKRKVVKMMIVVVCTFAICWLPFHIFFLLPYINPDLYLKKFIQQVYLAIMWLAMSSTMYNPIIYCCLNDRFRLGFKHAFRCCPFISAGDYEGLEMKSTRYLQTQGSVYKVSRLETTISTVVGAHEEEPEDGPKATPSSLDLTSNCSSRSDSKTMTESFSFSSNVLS

SMILES | IC50 (Substance-P receptor) | IC50 [1] | other results
FC(F)(F)c1cc(COCC2(c3ccccc3)CCC(N3CCCCC3)CC2)cc(C(F)(F)F)c1 (mixture of isomers) | 93 nM | 970 nM | –
FC(F)(F)c1cc(COCC2(c3ccccc3)CCC(N3CCCCC3)C2)cc(C(F)(F)F)c1 (mixture of isomers) | 4.7 nM | > 1000 nM | –
CN1CCN(C2CCC(COCc3cc(C(F)(F)F)cc(C(F)(F)F)c3)(c3ccccc3)CC2)CC1 (mixture of isomers) | 120 nM | 520 nM | –
N[C@@H]1CC[C@](COCc2cc(C(F)(F)F)cc(C(F)(F)F)c2)(c2ccccc2)C1 | 31 nM | 210 nM | –
N[C@H]1CC[C@@](COCc2cc(C(F)(F)F)cc(C(F)(F)F)c2)(c2ccccc2)C1 | 7.5 nM | 4.7 nM | Activity (Gerbillinae [2]): Non-toxic; concentration [3]: 0.3 µM; concentration [4]: 7.4 µM; Activity (Gerbillinae [5]): Active; Activity (Gerbillinae [6]): inactive
FC(F)(F)c1cc(COCC2(c3ccccc3)CCC(N3CCOCC3)CC2)cc(C(F)(F)F)c1 (mixture of isomers) | 350 nM | > 1000 nM | –
N[C@H]1CC[C@](COCc2cc(C(F)(F)F)cc(C(F)(F)F)c2)(c2ccccc2)C1 | 19 nM | 350 nM | –
CN(C)C1CCC(COCc2cc(C(F)(F)F)cc(C(F)(F)F)c2)(c2ccccc2)CC1 (mixture of isomers) | 48 nM | 250 nM | –
FC(F)(F)c1cc(COCC2(c3ccccc3)CCC(NC3CC3)C2)cc(C(F)(F)F)c1 (mixture of isomers) | 16 nM | 530 nM | –
FC(F)(F)c1cc(COCC2(c3ccccc3)CCC(N3CCOCC3)C2)cc(C(F)(F)F)c1 (mixture of isomers) | 45 nM | > 1000 nM | –
FC(F)(F)c1cc(COCC2(c3ccccc3)CCC(N3CCCC3)C2)cc(C(F)(F)F)c1 (mixture of isomers) | 14 nM | > 1000 nM | –
FC(F)(F)c1cc(COCC2(c3ccccc3)CCC(NC3CC3)CC2)cc(C(F)(F)F)c1 (mixture of isomers) | 74 nM | 680 nM | –
CCNC1CCC(COCc2cc(C(F)(F)F)cc(C(F)(F)F)c2)(c2ccccc2)CC1 (mixture of isomers) | 14 nM | 150 nM | –
CCN(CC)C1CCC(COCc2cc(C(F)(F)F)cc(C(F)(F)F)c2)(c2ccccc2)CC1 (mixture of isomers) | 38 nM | 280 nM | –
CNC1CCC(COCc2cc(C(F)(F)F)cc(C(F)(F)F)c2)(c2ccccc2)CC1 (mixture of isomers) | 16 nM | 190 nM | –
CC(C)N(C(C)C)C1CCC(COCc2cc(C(F)(F)F)cc(C(F)(F)F)c2)(c2ccccc2)C1 (mixture of isomers) | 470 nM | > 1000 nM | –
FC(F)(F)c1cc(COCC2(c3ccccc3)CCC(N3CCCC3)CC2)cc(C(F)(F)F)c1 (mixture of isomers) | 120 nM | > 1000 nM | –
CN(C)C1CCC(COCc2cc(C(F)(F)F)cc(C(F)(F)F)c2)(c2ccccc2)C1 (mixture of isomers) | 8 nM | 57 nM | –
N[C@@H]1CC[C@@](COCc2cc(C(F)(F)F)cc(C(F)(F)F)c2)(c2ccccc2)C1 | 11 nM | 130 nM | –
COCCN(C)C1CCC(COCc2cc(C(F)(F)F)cc(C(F)(F)F)c2)(c2ccccc2)C1 (mixture of isomers) | 20 nM | > 1000 nM | –
